{"source": "paper PMC4579064", "about": "(Toxicology and applied pharmacology, 2015)", "key": {"CYP1B1": {"biological_target": "T1, CYP1B1 (Homo sapiens, UniProt Q16678)", "T1 sequence (Q16678 1-543)": "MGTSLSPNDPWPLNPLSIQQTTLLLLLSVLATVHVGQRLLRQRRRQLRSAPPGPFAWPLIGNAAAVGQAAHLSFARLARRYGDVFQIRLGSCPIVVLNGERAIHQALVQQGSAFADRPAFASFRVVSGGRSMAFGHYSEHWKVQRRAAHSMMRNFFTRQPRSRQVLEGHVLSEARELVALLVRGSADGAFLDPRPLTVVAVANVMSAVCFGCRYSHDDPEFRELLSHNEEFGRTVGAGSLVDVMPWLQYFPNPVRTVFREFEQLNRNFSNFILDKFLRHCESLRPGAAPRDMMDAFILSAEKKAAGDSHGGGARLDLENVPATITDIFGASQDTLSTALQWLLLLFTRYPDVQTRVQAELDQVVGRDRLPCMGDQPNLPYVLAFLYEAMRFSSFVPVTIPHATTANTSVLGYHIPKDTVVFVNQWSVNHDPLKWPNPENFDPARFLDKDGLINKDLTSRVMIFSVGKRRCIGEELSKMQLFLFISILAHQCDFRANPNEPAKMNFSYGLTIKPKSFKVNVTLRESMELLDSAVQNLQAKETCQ", "T1 sequence (P16435 2-677 partner)": "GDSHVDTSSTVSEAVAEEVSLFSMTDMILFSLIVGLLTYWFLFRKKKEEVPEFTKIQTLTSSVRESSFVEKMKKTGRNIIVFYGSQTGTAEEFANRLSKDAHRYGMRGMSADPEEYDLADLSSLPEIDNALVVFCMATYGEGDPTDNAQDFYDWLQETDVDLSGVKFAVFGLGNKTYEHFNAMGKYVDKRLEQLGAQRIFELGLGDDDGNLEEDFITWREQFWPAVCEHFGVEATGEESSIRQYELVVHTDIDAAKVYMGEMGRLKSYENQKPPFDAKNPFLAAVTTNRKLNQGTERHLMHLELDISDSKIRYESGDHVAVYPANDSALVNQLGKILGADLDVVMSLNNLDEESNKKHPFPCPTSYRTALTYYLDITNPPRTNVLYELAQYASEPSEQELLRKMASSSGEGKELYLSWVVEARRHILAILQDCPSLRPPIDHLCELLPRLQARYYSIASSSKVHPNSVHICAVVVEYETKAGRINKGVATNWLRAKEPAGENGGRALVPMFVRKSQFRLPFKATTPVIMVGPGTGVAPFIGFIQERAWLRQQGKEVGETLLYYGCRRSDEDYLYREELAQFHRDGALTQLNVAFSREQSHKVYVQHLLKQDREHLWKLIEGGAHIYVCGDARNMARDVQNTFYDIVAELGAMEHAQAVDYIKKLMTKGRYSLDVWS", "test": "recombinant CYP activity with fluorogenic substrate", "format": "biochemical"}, "CYP2C9": {"biological_target": "CYP2C9 (Homo sapiens, UniProt P11712)", "sequence (P11712 whole entry, one chain of several)": "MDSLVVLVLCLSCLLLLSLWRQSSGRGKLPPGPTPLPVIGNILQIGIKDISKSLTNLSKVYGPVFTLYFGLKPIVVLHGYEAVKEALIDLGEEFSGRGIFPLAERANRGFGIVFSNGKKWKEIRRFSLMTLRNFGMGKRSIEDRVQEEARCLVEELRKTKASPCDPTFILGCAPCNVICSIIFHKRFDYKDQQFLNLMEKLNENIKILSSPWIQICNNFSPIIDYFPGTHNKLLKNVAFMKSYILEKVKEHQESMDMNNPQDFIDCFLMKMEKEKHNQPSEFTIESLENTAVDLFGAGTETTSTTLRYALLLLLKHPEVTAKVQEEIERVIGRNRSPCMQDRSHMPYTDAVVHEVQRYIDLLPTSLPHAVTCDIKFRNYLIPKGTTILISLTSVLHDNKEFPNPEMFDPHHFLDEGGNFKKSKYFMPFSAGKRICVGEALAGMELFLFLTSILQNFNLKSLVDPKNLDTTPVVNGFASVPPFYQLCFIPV", "test": "recombinant CYP activity with fluorogenic substrate", "format": "biochemical"}, "human liver microsomes": {"system": "human liver microsomes", "test": "paraoxon formation from parathion", "format": "biochemical"}, "liver Ces": {"system": "liver Ces", "test": "liver carboxylesterase", "format": "in vivo, rat", "conditions": "menadione 20 min after parathion"}, "CYP2B6": {"biological_target": "T2, CYP2B6 (Homo sapiens, UniProt P20813)", "T2 sequence (P20813 1-491)": "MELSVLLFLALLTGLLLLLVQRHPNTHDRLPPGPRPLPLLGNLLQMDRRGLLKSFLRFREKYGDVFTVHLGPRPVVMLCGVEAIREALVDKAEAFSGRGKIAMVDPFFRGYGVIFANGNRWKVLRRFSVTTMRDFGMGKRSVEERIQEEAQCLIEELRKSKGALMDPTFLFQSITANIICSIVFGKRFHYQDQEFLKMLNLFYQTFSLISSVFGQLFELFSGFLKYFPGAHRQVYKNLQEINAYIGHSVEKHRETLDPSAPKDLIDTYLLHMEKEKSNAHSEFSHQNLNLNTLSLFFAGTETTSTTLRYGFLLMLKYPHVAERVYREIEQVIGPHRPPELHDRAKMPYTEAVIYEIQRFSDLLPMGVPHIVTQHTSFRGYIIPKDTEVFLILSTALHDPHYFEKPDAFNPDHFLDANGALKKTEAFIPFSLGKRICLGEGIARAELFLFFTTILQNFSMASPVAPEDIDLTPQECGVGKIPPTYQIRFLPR"}, "CYP1A1": {"biological_target": "T3, CYP1A1 (Homo sapiens, UniProt P04798)", "T3 sequence (P04798 1-512)": "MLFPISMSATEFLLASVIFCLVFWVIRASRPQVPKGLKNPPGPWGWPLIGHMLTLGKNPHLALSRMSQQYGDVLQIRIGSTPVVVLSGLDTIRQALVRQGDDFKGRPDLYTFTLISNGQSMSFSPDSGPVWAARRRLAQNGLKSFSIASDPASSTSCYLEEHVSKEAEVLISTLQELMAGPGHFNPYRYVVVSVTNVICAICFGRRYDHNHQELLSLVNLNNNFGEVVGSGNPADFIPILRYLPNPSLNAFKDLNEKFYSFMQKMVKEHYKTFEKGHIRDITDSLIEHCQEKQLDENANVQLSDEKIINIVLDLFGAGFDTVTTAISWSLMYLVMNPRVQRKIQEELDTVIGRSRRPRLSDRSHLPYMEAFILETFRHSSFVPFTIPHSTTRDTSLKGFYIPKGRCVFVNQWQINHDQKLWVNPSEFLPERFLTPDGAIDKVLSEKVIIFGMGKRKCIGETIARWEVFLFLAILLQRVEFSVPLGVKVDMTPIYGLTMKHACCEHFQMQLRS", "T3 sequence (P16435 2-677 partner)": "T1 sequence (P16435 2-677 partner)", "test": "recombinant CYP activity with fluorogenic substrate"}}, "data": [{"compound": "CC1=CC(=O)c2ccccc2C1=O", "note": "[menadione, 2-methylnaphthalene-1,4-dione]", "values": [{"measurement": "IC50", "setting": "CYP1B1", "result": "7.02 ± 0.53", "unit": "µM"}, {"measurement": "IC50", "setting": "CYP2C9", "result": "8.91 ± 0.57", "unit": "µM"}, {"measurement": "paraoxon formation", "setting": "human liver microsomes", "result": "marked decrease"}, {"measurement": "inhibition of liver Ces by parathion", "setting": "liver Ces", "result": "reduced the inhibition"}, {"measurement": "paraoxon formation", "setting": "CYP2B6", "result": "marked decrease"}, {"measurement": "IC50", "setting": "CYP1A1", "result": "4.39 ± 0.42", "unit": "µM"}]}]}
